The subject of experiment [1] is cells expressing human or cynomolgus PD-1. As to conditions: human versus cynomolgus PD-1; cited from earlier work.
Another experiment addresses T1, cynomolgus PD-1 (cynomolgus).
T1 chain: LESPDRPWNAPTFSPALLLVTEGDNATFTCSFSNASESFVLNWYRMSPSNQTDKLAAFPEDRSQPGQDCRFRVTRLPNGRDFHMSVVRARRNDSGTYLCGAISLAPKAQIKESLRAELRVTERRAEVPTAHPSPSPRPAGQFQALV
Put plainly: kinetic analysis (bio-light interferometry).

These results are taken from patent US20220096650A1 (Glaxosmithkline Intellectual Property Development Limited, priority 2019, published 2022).

Broadly, the Kd is the equilibrium constant for the complex coming apart.

As for “pembrolizumab: monoclonal IgG4 kappa antibody that binds the PD-1 receptor and blocks its interaction with PD-L1 and PD-L2”, in experiment [1], the “blocking of binding of human PD-1 ligands to cells expressing human or cynomolgus PD-1” value was “comparable potency”.

B1: Pembrolizumab (antibody, human IgG4 S228P, kappa, V domains shown)
VH: QVQLVQSGVEVKKPGASVKVSCKASGYTFTNYYMYWVRQAPGQGLEWMGGINPSNGGTNFNEKFKNRVTLTTDSSTTTAYMELKSLQFDDTAVYYCARRDYRFDMGFDYWGQGTTVTVSS
VL: EIVLTQSPATLSLSPGERATLSCRASKGVSTSGYSYLHWYQQKPGQAPRLLIYLASYLESGVPARFSGSGSGTDFTLTISSLEPEDFAVYYCQHSRDLPLTFGGGTKVEIKR
notes: also called MK3475
In turn, B1 returned a Kd with cynomolgus PD-1 of 0.118 nM.
